Results reported in paper PMC6931124, “NPY1R-targeted peptide-mediated delivery of a dual PPARα/γ agonist to adipocytes enhances adipogenesis and prevents diabetes progression” (Molecular Metabolism, 2019).

How the values were obtained:
3T3-L1 cells = test: qRT-PCR of adipocyte-marker genes, 3T3-L1; type: cell-based, murine; details: qPCR, vs DMSO; n ≥ 3
Method: The 3T3-L1 or SGBS cells were seeded into 6-well plates and differentiated as previously described. Tesa or peptides were added to the differentiation medium at a concentration of 100 μM on day 2, followed by 12 h or 24 h incubation. On day 4, the cells were washed two times with PBS, harvested by trypsinization, and stored at −70 °C until RNA isolation was performed. […] N ≥ 3 independent experiments with two replicates were performed. For the cell culture experiments, the data were analyzed according to the 2^−ΔΔCt method using 36B4 or GAPDH as housekeeping genes and DMSO treatment as a control. Liver mRNA expression was calculated relative to 18sRNA, which was used as an internal control due to its resistance to glucose-dependent regulation. The mRNA levels were quantified using the standard curve method of QuantStudio 6 Flex software (Applied Biosystems, Foster City, CA, USA), determining the crossing points of the individual samples using an algorithm that identifies the first turning point of the fluorescence curve. Amplification of the specific transcripts was confirmed by the melting curve profiles (cooling the sample to 68 °C and heating slowly to 95 °C while measuring the fluorescence) at the end of each PCR [53].
(A, B) Cells were differentiated and stimulated according to the protocol depicted for 3T3-L1 (A) and for SGBS (B). […] Bars represent mean ± SEM from n = 3 independent experiments performed in quadruplicates. Measurements were normalized using DMSO (vehicle)-treated cells (set to 100%). Statistical significances refer to vehicle-treated cells. (E,F) Expression of adipocyte-enriched genes in 3T3-L1 (E) or SGBS (F) adipocytes analyzed by qPCR. Values represent mean ± SEM from n ≥ 3 independent experiments performed in duplicates. […] Statistical significances refer to DMSO-treated cells and were determined by one-way analysis of variance (ANOVA) followed by Dunnett's multiple comparison test, *≤0.05, **p ≤ 0.01, ***p ≤ 0.001.

Ketone bodies = type: in vivo; details: db/db mice, 2.5 μM/kg/day, 8 days; n = 5
Method: (§1) All of the experiments were performed according to the animal ethical laws of the state Saxony, Germany, and were approved by the local animal ethics review board (Landesdirektion Sachsen, Leipzig, Germany). Female db/db mice 12–15 weeks of age were purchased from Taconic (Denmark) and housed in groups of 5 in temperature- and humidity-controlled facilities in a 12 h:12 h light–dark cycle and had free access to tap water and food (regular chow, Sniff, Soest, Germany). Three out of seven groups served as controls (N = 15, see Table 1). The 5 db/db mice were untreated and 10 db/db mice were vehicle treated either orally or intraperitoneally (i.p.). […]
All of the mice were monitored for 9 days during the treatment period. Body weight, food intake, and water uptake were recorded daily and body composition (lean body mass and whole body fat mass) was recorded at the beginning, middle, and end of the study in the conscious mice using an EchoMRI system (Echo Medical Systems, Houston, TX, USA). At the beginning and end of the treatment period, the HbA1c levels were determined from 5 μl of whole venous blood samples using an automated chemical analyzer at the Institute of Laboratory Medicine and Clinical Chemistry and beta-ketone using an automated glucose monitor (FreeStyle Precision H, Abbott GmbH, Ludwigshafen, Germany). […]

Serum adiponectin = type: in vivo; details: db/db mice, 2.5 μmol/kg/day, 8 days; ELISA; n = 5
Method: as §1, with “(i.p.). One additional group (n = 5) of lean C57BL/6NTac mice was used as a metabolically healthy control group.” for “(i.p.).”
(§2) Serum insulin (mouse insulin ELISA, Mercodia, Uppsala, Sweden), adiponectin (mouse adiponectin ELISA, AdipoGen, San Diego, CA, USA), leptin (mouse leptin ELISA, Crystal Chem, Downers Grove, IL, USA), and Mcp-1 (mouse/rat CCL2/JE/Mcp-1 Quantikine ELISA, R&D Systems, Minneapolis, MN, USA) levels were analyzed via ELISA according to the manufacturer's instructions. Serum concentrations of TG, FFA, and cholesterol were measured by an automatic chemical analyzer at the Institute of Laboratory Medicine and Clinical Chemistry.

Serum leptin = type: in vivo; details: db/db mice, 2.5 μmol/kg/day, 8 days; ELISA; n = 5
Method: as §1, with “(i.p.). One additional group (n = 5) of lean C57BL/6NTac mice was used as a metabolically healthy control group.” for “(i.p.).”
as §2

Plasma triglycerides = type: in vivo; details: db/db mice, 2.5 μmol/kg/day, 8 days; n = 5
Method: as §1, with “(i.p.). One additional group (n = 5) of lean C57BL/6NTac mice was used as a metabolically healthy control group.” for “(i.p.).”
as §2

Plasma free fatty acids = type: in vivo; details: db/db mice, 2.5 μM/kg/day, 8 days; n = 5
Method: as §1, with “(i.p.). One additional group (n = 5) of lean C57BL/6NTac mice was used as a metabolically healthy control group.” for “(i.p.).”
as §2

[1] = system: LDL receptor-deficient mice; details: ref [94]; cited from earlier work
db/db mice = details: ref Cha et al. [93]; cited from earlier work
Text: To strengthen this finding, we examined the expression of the PPARγ-responsive genes adiponectin, Fabp4, and Cidec [[71], [72], [73], [74],[88], [89], [90], [91]]. Adiponectin may mediate the beneficial effects of PPARγ agonists for the treatment of diabetes, as it is an insulin-sensitizing adipokine that affects hepatic glucose output and decre ...

In the case of `CCO[C@@H](Cc1ccc(OCCc2ccc(OS(C)(=O)=O)cc2)cc1)C(=O)O` [tesa, tesaglitazar], the “Cidec expression, 3T3-L1” value (3T3-L1 cells) is reported as “enhanced”, the “Fabp4 expression, 3T3-L1” value (3T3-L1 cells) is reported as “enhanced” and the “adiponectin expression, 3T3-L1” value (3T3-L1 cells) is reported as “upregulated”. The ketone bodies (Ketone bodies) was “normalization of the plasma concentration”, the “adiponectin, serum” value (Serum adiponectin) was “normalization of the plasma concentration” and the serum leptin concentration (Serum leptin) was “no significant effect”. For the same molecule, the triglycerides (Plasma triglycerides) was “normalization”, the “free fatty acids (FFA)” value (Plasma free fatty acids) was “normalization” and the “atherosclerosis in LDL receptor-deficient mice” value [1] was “reduces atherosclerosis in LDL receptor-deficient mice”. For the same molecule, the “adiponectin mRNA expression and plasma levels” value (db/db mice) was “induces increased adiponectin mRNA expression and plasma levels in db/db mice”.
